Legend:
Test in all cases: relative viability (nuclei count vs DMSO), 5 days (fraction); higher = more cells survive
Linsitinib + Foretinib = compound: C[C@]1(O)C[C@@H](c2nc(-c3ccc4ccc(-c5ccccc5)nc4c3)c3c(N)nccn32)C1 [Linsitinib] + COc1cc2c(Oc3ccc(NC(=O)C4(C(=O)Nc5ccc(F)cc5)CC4)cc3F)ccnc2cc1OCCCN1CCOCC1 [Foretinib] (partner 0.25 µM)
Procedure, shortened: (§1)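 A single step with final 0.05% Triton X-100, 1% formaldehyde and 1 ug/ml Hoechst fixed the cells and stained nuclei 5 days after treatment. Lung cancer cell lines in 1536-well plates had been treated by pin tool the day after seeding with one drug alone or a fixed anchor-drug dose plus five library-drug doses (not always all listed) in √10 steps, and nuclei were counted on 4× images. Relative viability is the ratio of nuclei in treated wells to nuclei in vehicle wells, taken as the median of duplicate plates.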

Linsitinib + AZD7762 = compound: C[C@]1(O)C[C@@H](c2nc(-c3ccc4ccc(-c5ccccc5)nc4c3)c3c(N)nccn32)C1 [Linsitinib] + NC(=O)Nc1cc(-c2cccc(F)c2)sc1C(=O)N[C@H]1CCCNC1 [AZD7762] (partner 0.2 µM)
Procedure, shortened: as §1

Ispinesib + Phenformin = compound: Cc1ccc(C(=O)N(CCCN)[C@@H](c2nc3cc(Cl)ccc3c(=O)n2Cc2ccccc2)C(C)C)cc1 [Ispinesib] + N=C(N)NC(=N)NCCc1ccccc1 [Phenformin] (partner 250 µM)
Procedure, shortened: as §1

Row | Cell Line | relative viability (Linsitinib + Foretinib; first compound 0.01 µM) | relative viability (Linsitinib + Foretinib; first compound 0.03162 µM) | relative viability (Linsitinib + Foretinib; first compound 0.1 µM) | relative viability (Linsitinib + Foretinib; first compound 0.3162 µM) | relative viability (Linsitinib + Foretinib; first compound 1 µM) | relative viability (Linsitinib + AZD7762; first compound 0.01 µM) | relative viability (Linsitinib + AZD7762; first compound 0.03162 µM) | relative viability (Linsitinib + AZD7762; first compound 0.1 µM) | relative viability (Linsitinib + AZD7762; first compound 0.3162 µM) | relative viability (Linsitinib + AZD7762; first compound 1 µM) | relative viability (Ispinesib + Phenformin; first compound 0.001 µM) | relative viability (Ispinesib + Phenformin; first compound 0.003162 µM) | relative viability (Ispinesib + Phenformin; first compound 0.01 µM) | relative viability (Ispinesib + Phenformin; first compound 0.03162 µM) | relative viability (Ispinesib + Phenformin; first compound 0.1 µM)
1 | NCI-H322M | 1 | 0.77 | 0.989 | 0.916 | 0.923 | 0.575 | 0.411 | 0.485 | 0.49 | 0.414 | 0.874 | 0.891 | 0.82 | 0.39 | 0.389
2 | NCI-H358 | 0.62 | 0.701 | 0.607 | 0.538 | 0.365 | 0.668 | 0.473 | 0.563 | 0.366 | 0.321 | 0.391 | 0.351 | 0.266 | 0.102 | 0.0986
3 | NCI-H441 | 0.928 | 1.18 | 0.834 | 0.835 | 0.492 | 1.2 | 1.07 | 1.29 | 0.831 | 0.898 | 0.977 | 0.823 | 0.84 | 0.247 | 0.301
4 | NCI-H460 | 1.02 | 1.05 | 0.969 | 0.935 | 1.02 | 0.566 | 0.614 | 0.698 | – | 0.398 | 0.557 | 0.579 | 0.559 | 0.0429 | 0.032
5 | NCI-H596 | 0.831 | 0.978 | 0.873 | 0.871 | 0.858 | 1.19 | 1.06 | 1 | 1.14 | 0.92 | 0.676 | 0.791 | 0.765 | 0.791 | 0.315

Reference: the supplement of paper PMC10307832
